For experiment [1], the target named is T1, cloned dopamine D3 receptors (Homo sapiens, UniProt P35462).
T1 construct: expressed in transfected cells
Put plainly: Radioligand Kd at cloned dopamine D3 receptors. The class given is binding.

For experiment [2], the system named is depressive symptoms in acute exacerbations of schizophrenia. As to conditions: amisulpride 400-800 mg/day, haloperidol 15-20 mg/day, risperidone 8 mg/day; Peuskens et al. 2002; cited from earlier work.
For experiment [3], the system named is duration of immobility in the forced swimming test. As to conditions: mice, Nakazawa et al. 2003, cited from earlier work.
For experiment [4], the system named is dopamine behavioral supersensitivity. Kind of experiment: Dopamine behavioral supersensitivity in animals. As to conditions: P. Seeman, Unpublished Results. Format: in vivo.
Experiment [5] relates to depression (Major Depressive Disorder). Put plainly: Clinical observation of treatment-resistant depression patients, Hamilton Scale for Depression. The class given is in vivo, human. An excerpt:
All subjects were patients of a clinic for treatment-resistant depression at a tertiary hospital. Treatment-resistance was defined as a treatment failure on at least two other antidepressants prior to their referral to the clinic. Patients were deemed to be depressed by the referring psychiatrist as well as the treating psychiatrist according to DSM IV Criteria for Major Depressive Disorder.
The higher the value, the more severe the depression.

We go through 7 compounds from patent publication US8791138B2, “Compositions and methods for alleviating depression or improving cognition” (Clera Inc., priority 2008, dated 2014).

The structures appear in SMILES notation.

T1 sequence (P35462 whole entry): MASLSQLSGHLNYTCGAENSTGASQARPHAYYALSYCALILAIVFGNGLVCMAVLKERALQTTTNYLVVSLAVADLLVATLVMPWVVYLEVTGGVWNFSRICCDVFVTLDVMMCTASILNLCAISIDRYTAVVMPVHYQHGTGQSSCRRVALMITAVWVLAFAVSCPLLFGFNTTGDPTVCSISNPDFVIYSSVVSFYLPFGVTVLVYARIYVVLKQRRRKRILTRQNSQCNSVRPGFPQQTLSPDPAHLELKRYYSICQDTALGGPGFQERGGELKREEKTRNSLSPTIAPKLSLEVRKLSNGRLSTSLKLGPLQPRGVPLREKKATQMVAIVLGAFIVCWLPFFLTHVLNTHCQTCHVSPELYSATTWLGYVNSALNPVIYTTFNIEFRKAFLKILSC

As usually defined, the Kd is the free concentration of one partner at which half of the binding sites on the other are occupied at equilibrium, for simple one-to-one binding. A high value points to a looser complex. `CCN1CCC[C@H]1CNC(=O)c1c(O)c(Cl)cc(Cl)c1OC` (racemic) [[^3H]raclopride]: the affinity in experiment [1], expressed as Kd, was 1.6 nM.

Consider `CCN1CCCC1CNC(=O)c1cc(S(=O)(=O)CC)c(N)cc1OC` (stereo not shown) [amisulpride], for which the “Brief Psychiatric Rating Scale (BPRS) anxiety/depression subscore” value in experiment [2] is 5.6±6.1.

Consider `O=c1cc(-c2ccc(O)cc2)oc2cc(O)cc(O)c12` [apigenin], for which, in experiment [3], the “duration of immobility in the forced swimming test” value is “significantly decreased”.

Regarding `CNCCC(Oc1ccc(C(F)(F)F)cc1)c1ccccc1` (stereo not shown) [fluoxetine], the “dopamine behavioral supersensitivity in animals” value in experiment [4] was “cause dopamine behavioral supersensitivity”.

In the case of `O=C(CCCN1CCC(O)(c2ccc(Cl)cc2)CC1)c1ccc(F)cc1` [haloperidol], in experiment [3] (haloperidol 0.2 mg/kg), the “effect on apigenin-induced decrease in immobility in the forced swimming test” value is reported as “blocked”. The “Rating after end of haloperidol (Hamilton depression scale)” value is listed as 9 (5th week) in experiment [5] (Subject A, 5th week after starting medication, rating before 7-day regimen 14); 15 (5th week) in experiment [5] (Subject B, 5th week after starting medication, rating before 7-day regimen 18); 12 (5th week) in experiment [5] (Subject C, 5th week after starting medication, rating before 7-day regimen 30); 32 (5th week) in experiment [5] (Subject D, 5th week after starting medication, rating before 7-day regimen 40); 7 (4th week) in experiment [5] (Subject E, 4th week after starting medication, rating before 7-day regimen 23); 4 (5th week) in experiment [5] (Subject F, 5th week after starting medication, rating before 7-day regimen 20). For the same compound, in experiment [5] (Subject G, 5th week after starting medication, rating before 7-day regimen 24), the “Rating after end of haloperidol (Hamilton depression scale)” value was 13 (5th week). Further, the “severity of the depression after the 7-day treatment regimen” value in experiment [5] (all patients, oral 0.2-0.3 mg/day graded for 7 days) is listed as “decreased”. Besides, the “Brief Psychiatric Rating Scale (BPRS) anxiety/depression subscore” value in experiment [2] is reported as 4.4±5.5.

In the case of `CN(C)CCCN1c2ccccc2CCc2ccccc21` [imipramine], the “dopamine behavioral supersensitivity in animals” value in experiment [4] was “cause dopamine behavioral supersensitivity”.

As for `Cc1nc2n(c(=O)c1CCN1CCC(c3noc4cc(F)ccc34)CC1)CCCC2` [risperidone], the “Brief Psychiatric Rating Scale (BPRS) anxiety/depression subscore” value in experiment [2] was 3.7±4.7.
